Measurements taken from patent publication US11813070B2, “Apparatus for measuring pressure changes in stomach” (VIPUN Medical NV, priority 2017, dated 2023).
Entries after “also recorded” stand apart in the source; their conditions may differ.

How the values were obtained:
[1] = system: healthy subjects; experiment: Gastric emptying rate by 13C-octanoic acid breath test (GET½) after codeine or placebo; format: in vivo, human; details: inflated balloon (200 ml), 60 mg codeine as syrup, single dose, n=6
Description: The study was designed as a randomized crossover study with 4 groups was (see schematic 14): • 20 ml balloon—placebo • 20 ml balloon—codeine • 200 ml balloon—placebo • 200 ml balloon—codeine
The volunteers received either placebo or codeine as a syrup. After positioning the balloon catheter the balloon was filled with 50 ml for 10 minutes, hereafter the balloon was inflated to 200 ml of deflated to 20 ml depending on the treatment arm. After this and in total 20 minutes after syrup ingestion 150 ml of a nutrient drink (Nutridrink, Nutricia (NL)) was directly infused into the stomach at a constant speed of 75 ml/hour. […]
Gastric emptying rate was measured using the ^13C-octanoic acid breath test (11). ^13C-labeled octanoic acid was solved in the nutrient drink (0.5 mg/ml). Emptying of the stomach was assessed by analysis of the exhaled ^13CO2, after oxidation of octanoic acid in the liver. […]
2) Gastric emptying (breath test). The ratio of ^13CO2 to ^12CO2 (molar mass 45 and 44 gr/mol) in the breath samples collected was measured by isotope ratio mass spectrometry (IRMS; ABCA, Sercon, Crewe, UK). As described before (12) a ^13C recovery rate per hour (% dosage per hour) was calculated per sample taking into account that the total dosage ^13C was administered over 2 hours. […]

[2] = system: healthy subjects; experiment: Gastric motility measured as intragastric balloon pressure (motility index, MI) after codeine or placebo; format: in vivo, human; details: 60 mg codeine as syrup, single dose, n=6
Description: The example explored the potential of a balloon with the optimal balloon size as determined in examples 1 and the optimal balloon material characteristics as determined in examples 2. More specifically the aim was 3-fold: • To investigate whether the nasogastric balloon catheter can be used to detect (codeine-induced) decreased gastric motility. • To investigate the correlation between gastric motility and gastric emptying changes after codeine treatment. • To investigate whether the presence of an inflated intragastric balloon influences gastric motility and emptying.
6 healthy subjects were recruited for this study. […] Subjects were asked to come to the clinic after at least 6 hours fasting, none of the subjects were taking any medication apart from contraception pills. […]
The 20 ml balloon experiments served as a control for the 200 ml balloon experiments since the effect of a 200 ml balloon on gastric motility and emptying is unknown. Gastric motility was assessed with a double lumen balloon catheter as described below by measuring the pressure in the balloon with an external pressure sensor. […]
Customized computer software (Pharmlab 5.0; AstraZeneca R&D, Mölndal, Sweden) was used to record pressure as mmHg at 1 Hz. […] The baseline was calculated as follows: […]

COc1ccc2c3c1O[C@H]1[C@@H](O)C=C[C@H]4[C@@H](C2)N(C)CC[C@@]341 [codeine]
gastric half emptying time (GET½), codeine vs. placebo [1]: GET½ increased; also recorded: significant treatment effect (P<0.05); also recorded: increased GET½; also recorded: delayed gastric emptying
gastric half emptying time (GET½), codeine vs. placebo ([1]; listed as Codeine): delayed gastric emptying
gastric contractility expressed as motility index (MI), codeine vs. placebo ([2]; deflated balloon (20 ml)): did not significantly affect MI; also recorded: no effect of treatment; also recorded: No effect of codeine on motility could be detected
gastric contractility expressed as motility index (MI), codeine vs. placebo ([2]; inflated balloon (200 ml)): significant effect on MI (P<0.01); also recorded: motility was always decreased; also recorded: significant treatment effect (P<0.01); also recorded: decreased MI; also recorded: significantly decreased gastric motility
